# Experimental data from ChEMBL document CHEMBL3885861, “Open TG-GATES”.
# Species on record: Rattus norvegicus
# Assay: Open TG-GATES - Regimen: Single
# Format: toxicity, organism-based, Sprague-Dawley
# Set-up: regimen Single, gender Male, age 6 weeks
# Settings: in vivo, po, 0 mg/kg, route gavage, dose level Control; for APTT / Bas / Eos / Fbg / Hb / Ht / Lym / MCH / MCHC / MCV / Mono / Neu / PT / Plat / RBC / Ret / WBC: tissue Blood; for KIDNEY_L / KIDNEY_R / KIDNEY_TOTAL: tissue Kidney; for LIVER: tissue Liver; for A/G / ALP / ALT / AST / BUN / CRE / Ca / Cl / DBIL / GLC / IP / K / LDH / Na / PL / RALB / TBIL / TC / TG / TP / gamma-GTP: tissue Plasma
structure (smiles),measurement,setting,value
Clc1c(Cl)c(Cl)c(Cl)c(Cl)c1Cl [PERCHLOROBENZENE],TERMINAL_BW,3 h,219.4 g
same,APTT,3 h,19.3 s
same,Bas,3 h,0.2%
same,Eos,3 h,0.8%
same,Fbg,3 h,218.8 mg/dL
same,Hb,3 h,13.5 g/dL
same,Ht,3 h,38.6%
same,Lym,3 h,75.4%
same,MCH,3 h,21.1 pg
same,MCHC,3 h,34.9%
same,MCV,3 h,60.3 fL
same,Mono,3 h,3.2%
same,Neu,3 h,18.6%
same,PT,3 h,11.9 s
same,Plat,3 h,122 x10_4/uL
same,RBC,3 h,639.6 x10_4/ul
same,Ret,3 h,7.1%
same,WBC,3 h,76.5 x10_2/uL
same,KIDNEY_L,3 h,1 g
same,KIDNEY_R,3 h,1 g
same,KIDNEY_TOTAL,3 h,2 g
same,LIVER,3 h,9.9 g
same,A/G,3 h,1.7
same,ALP,3 h,1008.2 IU/L
same,ALT,3 h,42.8 IU/L
same,AST,3 h,78 IU/L
same,BUN,3 h,11.4 mg/dL
same,CRE,3 h,0.4 mg/dL
same,Ca,3 h,10.9 mg/dL
same,Cl,3 h,103.4 meq/L
same,DBIL,3 h,0.07 mg/dL
same,GLC,3 h,187.2 mg/dL
same,IP,3 h,8.4 mg/dL
same,K,3 h,4 meq/L
same,LDH,3 h,216.2 IU/L
same,Na,3 h,140.6 meq/L
same,PL,3 h,156.8 mg/dL
same,RALB,3 h,3.5 g/dL
same,TBIL,3 h,0.1 mg/dL
same,TC,3 h,76.8 mg/dL
same,TG,3 h,103.4 mg/dL
same,TP,3 h,5.5 g/dL
same,gamma-GTP,3 h,1 IU/L
same,TERMINAL_BW,6 h,219.4 g
same,APTT,6 h,19.5 s
same,Bas,6 h,0.2%
same,Eos,6 h,0.6%
same,Fbg,6 h,230.4 mg/dL
same,Hb,6 h,13.5 g/dL
same,Ht,6 h,38.4%
same,Lym,6 h,79.6%
same,MCH,6 h,21.7 pg
same,MCHC,6 h,35.3%
same,MCV,6 h,61.5 fL
same,Mono,6 h,3.2%
same,Neu,6 h,14.8%
same,PT,6 h,11.7 s
same,Plat,6 h,134.1 x10_4/uL
same,RBC,6 h,624 x10_4/ul
same,Ret,6 h,7.2%
same,WBC,6 h,106.3 x10_2/uL
same,KIDNEY_L,6 h,1 g
same,KIDNEY_R,6 h,1 g
same,KIDNEY_TOTAL,6 h,2 g
same,LIVER,6 h,9.6 g
same,A/G,6 h,1.5
same,ALP,6 h,958.2 IU/L
same,ALT,6 h,32 IU/L
same,AST,6 h,70.6 IU/L
same,BUN,6 h,9.2 mg/dL
same,CRE,6 h,0.4 mg/dL
same,Ca,6 h,10.6 mg/dL
same,Cl,6 h,102.6 meq/L
same,DBIL,6 h,0.06 mg/dL
same,GLC,6 h,192.8 mg/dL
same,IP,6 h,9.4 mg/dL
same,K,6 h,4.2 meq/L
same,LDH,6 h,216.4 IU/L
same,Na,6 h,140.2 meq/L
same,PL,6 h,149.6 mg/dL
same,RALB,6 h,3.3 g/dL
same,TBIL,6 h,0.1 mg/dL
same,TC,6 h,77.6 mg/dL
same,TG,6 h,71.2 mg/dL
same,TP,6 h,5.6 g/dL
same,gamma-GTP,6 h,1.2 IU/L
same,TERMINAL_BW,9 h,215.4 g
same,APTT,9 h,21.3 s
same,Bas,9 h,0.2%
same,Eos,9 h,1%
same,Fbg,9 h,226.6 mg/dL
same,Hb,9 h,13.5 g/dL
same,Ht,9 h,38.6%
same,Lym,9 h,75%
same,MCH,9 h,21.1 pg
same,MCHC,9 h,35%
same,MCV,9 h,60.2 fL
same,Mono,9 h,2.6%
same,Neu,9 h,19.8%
same,PT,9 h,12.3 s
same,Plat,9 h,128.3 x10_4/uL
same,RBC,9 h,641.8 x10_4/ul
same,Ret,9 h,7%
same,WBC,9 h,90.9 x10_2/uL
same,KIDNEY_L,9 h,1 g
same,KIDNEY_R,9 h,0.9 g
same,KIDNEY_TOTAL,9 h,1.9 g
same,LIVER,9 h,8.7 g
same,A/G,9 h,1.6
same,ALP,9 h,849.2 IU/L
same,ALT,9 h,28.4 IU/L
same,AST,9 h,62.4 IU/L
same,BUN,9 h,9.4 mg/dL
same,CRE,9 h,0.3 mg/dL
same,Ca,9 h,10.7 mg/dL
same,Cl,9 h,103.6 meq/L
same,DBIL,9 h,0.068 mg/dL
same,GLC,9 h,198.8 mg/dL
same,IP,9 h,10.6 mg/dL
same,K,9 h,3.8 meq/L
same,LDH,9 h,175.8 IU/L
same,Na,9 h,142 meq/L
same,PL,9 h,129.4 mg/dL
same,RALB,9 h,3.3 g/dL
same,TBIL,9 h,0.1 mg/dL
same,TC,9 h,67.6 mg/dL
same,TG,9 h,46.6 mg/dL
same,TP,9 h,5.5 g/dL
same,gamma-GTP,9 h,1 IU/L
same,TERMINAL_BW,24 h,227.7 g
same,APTT,24 h,18.7 s
same,Bas,24 h,0.6%
same,Eos,24 h,0.8%
same,Fbg,24 h,216.6 mg/dL
same,Hb,24 h,13.7 g/dL
same,Ht,24 h,39.5%
same,Lym,24 h,80.8%
same,MCH,24 h,21.1 pg
same,MCHC,24 h,34.8%
same,MCV,24 h,60.6 fL
same,Mono,24 h,2.2%
same,Neu,24 h,14.8%
same,PT,24 h,11.9 s
same,Plat,24 h,129.9 x10_4/uL
same,RBC,24 h,651.8 x10_4/ul
same,Ret,24 h,6.2%
same,WBC,24 h,90.7 x10_2/uL
same,KIDNEY_L,24 h,1.1 g
same,KIDNEY_R,24 h,1.1 g
same,KIDNEY_TOTAL,24 h,2.1 g
same,LIVER,24 h,10.3 g
same,A/G,24 h,1.6
same,ALP,24 h,981.2 IU/L
same,ALT,24 h,31.2 IU/L
same,AST,24 h,70.6 IU/L
same,BUN,24 h,13.6 mg/dL
same,CRE,24 h,0.4 mg/dL
same,Ca,24 h,10.9 mg/dL
same,Cl,24 h,103 meq/L
same,DBIL,24 h,0.06 mg/dL
same,GLC,24 h,192.6 mg/dL
same,IP,24 h,7.5 mg/dL
same,K,24 h,4 meq/L
same,LDH,24 h,203.2 IU/L
same,Na,24 h,141.2 meq/L
same,PL,24 h,131.4 mg/dL
same,RALB,24 h,3.4 g/dL
same,TBIL,24 h,0.1 mg/dL
same,TC,24 h,70.2 mg/dL
same,TG,24 h,68.2 mg/dL
same,TP,24 h,5.5 g/dL
same,gamma-GTP,24 h,1.2 IU/L
